Molecules are shown by their SMILES.

The results in this text go back to US20230034696A1, “EGFR INHIBITORS” (Hoffmann-La Roche Inc., priority 2019, published 2023).

This test has as its target T1, EGFR TMLRCS (BaF3-TMLRCS cell line) (Homo sapiens, UniProt P00533, C797S/L858R/T790M).
T1 construct: host or cells: BaF3 (murine pro-B cells) engineered to express EGFR TMLRCS
The test can be described thus: HTRF Phospho EGFR TMLRCS assay (cellular). Format: cell-based. Particulars: BaF3-TMLRCS cells, 4 hours incubation. How it is done: HTRF Phospho EGFR TMLRCS Assay (Cellular)
BaF3-TMLRCS cell line were obtained from Crownbio (San Diego, CA, USA). Cells were maintained at 37° C., 5% CO2 in RPMI ATCC (Gibco 31870) + 2 mM Glutamine + 0.5 µg/ml Puromycin supplemented with 10% fetal bovine serum (FBS) (Gibco).
Cells are transferred as above to Greiner Bio-One, Nr. 784-08 micro-titerplate at 20000 cells/well in 12.5 µl of growth medium/well after the plates had been pre-filled with 12.5 nl of DMSO solutions of the to be tested compound (in dose response) or DMSO only. After spinning the plates at 300 × g for 30 seconds the cells were incubated for 4 hours at 37C, 5% CO2, 95% humidity. The cells were lysed by adding to the compound mix 4 µl/well of the supplemented lysis buffer (Cis-bio, Phospho-EGFR HTRF kit, 64EG1PEH), followed by incubation for 30 min at room temperature with shaking (400 rpm). The plates were then frozen and stored overnight at -80C. […] The lidded plates were then incubated for 4 h at room temperature before reading the fluorescence emission at 616 and 665 nm using an Envision reader (Perkin Elmer). Data was analyzed in similar fashion as above using the normalized ratio of the 665 to 616 signals multiplied by 10000.
(TR-FRET usually uses a lanthanide donor and a delayed reading to cut background.)

T1 sequence (P00533 25-1210 T790M/C797S/L858R): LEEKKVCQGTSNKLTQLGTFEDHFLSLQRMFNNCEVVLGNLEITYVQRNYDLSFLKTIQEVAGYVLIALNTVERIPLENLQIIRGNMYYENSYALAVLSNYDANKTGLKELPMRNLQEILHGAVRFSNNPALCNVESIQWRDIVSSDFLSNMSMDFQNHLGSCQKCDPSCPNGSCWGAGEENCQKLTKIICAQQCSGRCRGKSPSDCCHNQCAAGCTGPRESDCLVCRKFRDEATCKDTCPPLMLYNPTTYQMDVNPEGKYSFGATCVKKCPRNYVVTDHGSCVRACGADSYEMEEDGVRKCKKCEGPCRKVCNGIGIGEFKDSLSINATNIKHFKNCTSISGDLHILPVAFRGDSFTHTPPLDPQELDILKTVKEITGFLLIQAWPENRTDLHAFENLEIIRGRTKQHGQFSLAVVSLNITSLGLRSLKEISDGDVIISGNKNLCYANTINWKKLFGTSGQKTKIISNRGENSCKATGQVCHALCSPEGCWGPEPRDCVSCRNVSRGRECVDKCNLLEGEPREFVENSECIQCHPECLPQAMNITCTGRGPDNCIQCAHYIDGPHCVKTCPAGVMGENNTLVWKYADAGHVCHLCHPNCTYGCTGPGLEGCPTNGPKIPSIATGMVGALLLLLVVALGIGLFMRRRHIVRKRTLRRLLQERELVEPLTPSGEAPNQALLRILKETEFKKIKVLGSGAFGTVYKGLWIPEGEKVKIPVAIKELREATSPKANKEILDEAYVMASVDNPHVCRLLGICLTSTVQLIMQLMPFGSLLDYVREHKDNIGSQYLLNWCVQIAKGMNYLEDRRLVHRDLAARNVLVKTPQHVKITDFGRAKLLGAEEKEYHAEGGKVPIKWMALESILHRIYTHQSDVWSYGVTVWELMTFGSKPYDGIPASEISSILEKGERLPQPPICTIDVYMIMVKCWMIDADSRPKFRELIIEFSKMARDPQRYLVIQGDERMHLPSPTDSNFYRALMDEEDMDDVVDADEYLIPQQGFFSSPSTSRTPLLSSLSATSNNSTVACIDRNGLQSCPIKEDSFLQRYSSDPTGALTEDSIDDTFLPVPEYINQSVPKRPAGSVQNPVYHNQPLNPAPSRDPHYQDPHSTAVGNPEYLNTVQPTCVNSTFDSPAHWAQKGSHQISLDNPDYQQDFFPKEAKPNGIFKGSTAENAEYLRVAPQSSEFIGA

`O=C(Nc1nccs1)C(c1ncn2c1CCC2)N1Cc2c(Cl)cc(C#Cc3ccc(CN4CCC(CO)CC4)cc3)cc2C1=O` (racemic) [Example 1, 2-[4-chloro-6-[2-[4-[[4-(hydroxymethyl)-1-piperidyl]methyl]phenyl]ethynyl]-1-oxo-isoindolin-2-yl]-2-(6,7-dihydro-5H-pyrrolo[1,2-c]imidazol-1-yl)-N-thiazol-2-yl-acetamide] came in with an IC50 of 3 nM.

As a reminder, the IC50 is the concentration that inhibits the measured activity by half. Read a low IC50 as greater potency in that assay.
